From patent publication US20100137313A1 (ASTRAZENECA AB, priority 2008, published 2010)

target: S. pneumoniae Topoisomerase IV ATPase (ParE) (Streptococcus pneumoniae serotype 4, UniProt Q59961); assay: S. pneumoniae Topoisomerase IV ATPase inhibition; format: biochemical; conditions: values marked * are an average of two or more data points, read-out: % Inh (13 μM) of S. pneumoniae Topoisomerase IV ATPase
Procedure, shortened: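 S. pneumoniae ParE (1.25 nM) ATPase with 160 μM ATP and 5 μg/ml sheared DNA in pH 8.0 Tris, Mg2+, DTT, Brij-35; phosphate detected by malachite green/molybdate at 650 nm. Normalised to 2% DMSO (0%) and 20 μM EDTA (100%); IC50 from 10 concentrations.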

Chain of S. pneumoniae Topoisomerase IV ATPase (ParE) (Q59961 whole entry): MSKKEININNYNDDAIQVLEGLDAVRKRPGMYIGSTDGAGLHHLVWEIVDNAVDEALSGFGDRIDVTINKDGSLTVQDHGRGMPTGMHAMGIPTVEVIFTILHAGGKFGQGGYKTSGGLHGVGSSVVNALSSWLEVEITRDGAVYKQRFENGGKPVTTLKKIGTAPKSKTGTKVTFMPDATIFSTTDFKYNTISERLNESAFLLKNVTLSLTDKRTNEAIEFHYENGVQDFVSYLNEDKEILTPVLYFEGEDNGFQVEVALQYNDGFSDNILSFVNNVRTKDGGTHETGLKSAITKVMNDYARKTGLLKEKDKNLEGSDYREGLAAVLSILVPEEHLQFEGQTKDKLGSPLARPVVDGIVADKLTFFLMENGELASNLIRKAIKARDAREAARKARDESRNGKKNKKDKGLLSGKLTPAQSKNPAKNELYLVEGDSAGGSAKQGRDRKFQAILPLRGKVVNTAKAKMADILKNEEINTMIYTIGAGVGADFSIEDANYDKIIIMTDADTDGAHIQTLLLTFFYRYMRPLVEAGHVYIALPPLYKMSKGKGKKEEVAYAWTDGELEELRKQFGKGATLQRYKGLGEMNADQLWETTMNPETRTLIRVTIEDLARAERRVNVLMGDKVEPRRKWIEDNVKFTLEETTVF

In order of rising inhibition at 13 µM:
1. COc1cccc(-c2cnc(Nc3ccc(F)c(Cl)c3)nc2-n2ccc(C(F)(F)F)n2)n1 [Example 876, N-(3-chloro-4-fluorophenyl)-5-(6-methoxypyridin-2-yl)-4-(3-(trifluoromethyl)-1H-pyrazol-1-yl)pyrimidin-2-amine]  0%
2. CCOC(=O)/C=C/c1cccc(-c2cnc(Nc3ccc(F)c(Cl)c3)nc2N[C@@H]2CCOC2)c1 [Example 169, (R,E)-ethyl 3-(3-(2-(3-chloro-4-fluorophenylamino)-4-(tetrahydrofuran-3-ylamino)pyrimidin-5-yl)phenyl)acrylate]  34.2%
3. CCOC(=O)c1cncc(-c2cnc(Nc3ccc(F)c(Cl)c3)nc2N2CCC2)c1 [Example 126, ethyl 5-[4-(azetidin-1-yl)-2-[(3-chloro-4-fluorophenyl)amino]pyrimidin-5-yl]pyridine-3-carboxylate]  35.7%
4. Cc1cnc(CNc2nc(Nc3ccc(F)c(Cl)c3)ncc2-c2cncc(C(=O)O)c2)cn1 [Example 242, 5-[2-[(3-chloro-4-fluorophenyl)amino]-4-[(5-methylpyrazin-2-yl)methylamino]pyrimidin-5-yl]pyridine-3-carboxylic acid]  61.3%
5. CCOC(=O)c1cncc(-c2cnc(Nc3ccc(F)c(Cl)c3)nc2NCCCNC(=O)c2cnc(C)cn2)c1 [Example 141, ethyl 5-(2-(3-chloro-4-fluorophenylamino)-4-(3-(5-methylpyrazine-2-carboxamido)propyl-amino)pyrimidin-5-yl)nicotinate]  63.3%
6. Fc1ccc(Nc2ncc(-c3cncnc3)c(-n3ccnc3)n2)cc1Cl [Example 1113, N-(3-chloro-4-fluorophenyl)-4-imidazol-1-yl-5-pyrimidin-5-ylpyrimidin-2-amine]  72%
7. O=C(O)/C=C/c1cccc(-c2cnc(Nc3cc(F)cc(Cl)c3)nc2N2CCOCC2)c1 [Example 409, (E)-3-{3-[2-(3-Chloro-5-fluoro-phenylamino)-4-morpholin-4-yl-pyrimidin-5-yl]-phenyl}-acrylic acid]  77%
8. Fc1ccc(Nc2ncc(-c3cncnc3)c(NCCc3ccccn3)n2)cc1Cl [Example 44, N^2-(3-chloro-4-fluorophenyl)-N^4-(2-pyridin-2-ylethyl)-5-pyrimidin-5-ylpyrimidine-2,4-diamine]  78.4%
9. Cn1cc(CNc2nc(Nc3ccc(F)c(Cl)c3)ncc2-c2cccc(/C=C/C(=O)O)c2)cn1 [Example 298, (E)-3-(3-(2-(3-chloro-4-fluorophenylamino)-4-((1-methyl-1H-pyrazol-4-yl)methylamino)pyrimidin-5-yl)phenyl)acrylic acid]  80.7%
10. COC(=O)c1cc(-c2cnc(Nc3ccc(F)c(Cl)c3)nc2-n2ccc(C(F)(F)F)n2)cnc1OC [Example 1010, Methyl 5-(2-(3-chloro-4-fluorophenylamino)-4-(3-(trifluoromethyl)-1H-pyrazol-1-yl)pyrimidin-5-yl)-2-methoxynicotinate]  81%
11. Cc1cc(Nc2ncc(-c3cncc(C(=O)O)c3)c(N3CCOCC3)n2)ccc1F [Example 438]  81%
12. CCOC(=O)c1cncc(-c2cnc(Nc3ccc(F)c(Cl)c3)nc2N2CCOC(CO)C2)c1 (centres unmarked) [Example 978, Ethyl 5-(2-(3-chloro-4-fluorophenylamino)-4-(2-(hydroxymethyl)morpholino)pyrimidin-5-yl)nicotinate]  82%
13. COc1cc(Nc2ncc(-c3ccc(C(=O)O)s3)c(NCCCN(C)C)n2)cc(OC)c1 [Example 345, 5-(2-(3,5-dimethoxy-phenylamino)-4-(3-(dimethylamino)propyamino)pyrimidin-5-yl) thiophene-2-carboxylic acid]  82.7%
14. COCCCNc1nc(Nc2ccc(F)c(Cl)c2)ncc1-c1nc(-c2ccncc2)cs1 [Example 500, N^2-(3-chloro-4-fluorophenyl)-N^4-(3-methoxypropyl)-5-[4-(pyridin-4-yl)-1,3-thiazol-2-yl]pyrimidine-2,4-diamine]  83%
15. COc1ncc(-c2cnc(Nc3ccc(F)c(Cl)c3)nc2N2CCOCC2)cn1 [Example 77, N-(3-chloro-4-fluorophenyl)-2′-methoxy-4-morpholin-5,5′-bipyrimidin-2-amine]  83%
16. COCCCNc1nc(Nc2ccc(F)c(Cl)c2)ncc1-c1cccc(/C=C/C(=O)O)c1 [Example 293, (E)-3-(3-(2-(3-chloro-4-fluorophenylamino)-4-(3-methoxypropylamino)-pyrimidin-5-yl)phenyl)acrylic acid]  85.3%
17. Fc1ccc(Nc2ncc(-c3cncnc3)c(-n3cccc3)n2)cc1Cl [Example 73, N-(3-chloro-4-fluorophenyl)-4-(1H-pyrrol-1-yl)-5,5′-bipyrimidin-2-amine]  89.6%
18. Cc1cc(C(=O)O)nc(-c2cnc(Nc3ccc(F)c(Cl)c3)nc2-n2ccc(C(F)(F)F)n2)n1 [Example 879, 2′-(3-chloro-4-fluorophenylamino)-6-methyl-4′-(3-(trifluoromethyl)-1H-pyrazol-1-yl)-2,5′-bipyrimidine-4-carboxylic acid]  91%
19. COc1ncc(-c2cnc(Nc3cccc(C(N)=O)c3)nc2-n2ccc(C(F)(F)F)n2)cc1C(=O)O [Example 722, 5-{2-[(3-carbamoylphenyl)amino]-4-[3-(trifluoromethyl)-1H-pyrazol-1-yl]pyrimidin-5-yl}-2-methoxypyridine-3-carboxylic acid]  93%
20. COc1ncc(-c2cnc(Nc3ccc(F)c(Cl)c3)nc2-n2ccc(C(F)(F)F)n2)cc1CO [Example 1027, (5-(2-(3-chloro-4-fluorophenylamino)-4-(3-(trifluoromethyl)-1H-pyrazol-1-yl)pryimidin-5-yl)-2-methoxypyridin-3yl)methanol]  94%
21. Cc1cc(C(F)(F)F)nn1-c1nc(Nc2ccc3c(c2)OCO3)ncc1-c1cccc(/C=C/C(=O)O)c1 [Example 658, (2E)-3-(3-{2-(1,3-benzodioxol-5-ylamino)-4-[5-methyl-3-(trifluoromethyl)-1H-pyrazol-1-yl]pyrimidin-5-yl}phenyl)prop-2-enoic acid]  96%
22. COc1ncc(-c2cnc(Nc3cc(C)cc(C)c3)nc2-n2ccc(C(F)(F)F)n2)cc1C(=O)NS(=O)(=O)C(C)C [Example 826, 5-{2-[(3,5-dimethylphenyl)amino]-4-[3-(trifluoromethyl)-1H-pyrazol-1-yl]pyrimidin-5-yl}-2-methoxy-N-(propan-2-ylsulfonyl)pyridine-3-carboxamide]  96%
23. CONC(=O)c1cc(-c2cnc(Nc3ccc(F)c(Cl)c3)nc2-n2nc(C(F)(F)F)cc2C)cnc1OC [Example 1102, 5-(2-(3-chloro-4-fluorophenylamino)-4-(5-methyl-3-(trifluoromethyl)-1H-pyrazol-1-yl)pyrimidin-5-yl)-N,2-dimethoxynicotinamide]  96%
24. Cc1cc(C(F)(F)F)nn1-c1nc(Nc2cc(F)cc(C#N)c2)ncc1-c1cccc(/C=C/C(=O)O)c1 [Example 1116, (E)-3-(3-(2-(3-cyano-5-fluorophenylamino)-4-(5-methyl-3-(trifluoromethyl)-1H-pyrazol-1-yl)pyrimidin-5-yl)phenyl)acrylic acid]  97%
25. COc1cc(Nc2ncc(-c3cc(C(=O)NS(C)(=O)=O)c(=O)n(C)c3)c(-n3nc(C(F)(F)F)cc3C)n2)cc(OC)c1 [Example 1026]  98%
26. Nc1ncc(-c2cnc(Nc3ccc(F)c(Cl)c3)nc2-n2ccc(C(F)(F)F)n2)cc1C(=O)O [Example 1073, 2-Amino-5-(2-(3-chloro-4-fluorophenylamino)-4-(3-(trifluoromethyl)-1H-pyrazol-1-yl)pyrimidin-5-yl)nicotinic acid]  99%
27. Cc1cc(C(F)(F)F)nn1-c1nc(Nc2ccc(F)c(Cl)c2)ncc1-c1cncc(C(=O)N2CCOCC2)c1 [Example 931, (5-(2-(3-chloro-4-fluorophenylamino)-4-(5-methyl-3-(trifluoromethyl)-1H-pyrazol-1-yl)pyrimidin-5-yl)pyridin-3-yl)(morpholino)methanone]  100%
28. CCS(=O)(=O)NC(=O)c1cc(-c2cnc(Nc3cc(OC)cc(OC)c3)nc2-n2nc(C(F)(F)F)cc2C)cnc1OC [Example 815, 5-{2-[(3,5-dimethoxyphenyl)amino]-4-[5-methyl-3-(trifluoromethyl)-1H-pyrazol-1-yl]pyrimidin-5-yl}-N-(ethylsulfonyl)-2-methoxypyridine-3-carboxamide]  100%
29. O=C(O)/C=C/c1cccc(-c2cnc(Nc3ccc(F)c(Cl)c3)nc2-n2cc(-c3ccccn3)cn2)c1 [Example 567, (2E)-3-(3-{2-[(3-chloro-4-fluorophenyl)amino]-4-[4-(pyridin-2-yl)-1H-pyrazol-1-yl]pyrimidin-5-yl}phenyl)prop-2-enoic acid]  100%
30. O=C(O)/C=C/c1cccc(-c2cnc(Nc3ccc4c(c3)OCO4)nc2-n2ccc(C(F)(F)F)n2)c1 [Example 657, (2E)-3-(3-{2-(1,3-benzodioxol-5-ylamino)-4-[3-(trifluoromethyl)-1H-pyrazol-1-yl]pyrimidin-5-yl}phenyl)prop-2-enoic acid]  100%
31. Cc1cc(C)cc(Nc2ncc(-c3cc(C(=O)O)c(=O)n(C)c3)c(-n3ccc(C(F)(F)F)n3)n2)c1 [Example 922, 5-(2-(3,5-dimethylphenylamino)-4-(3-(trifluoromethyl)-1H-pyrazol-1-yl)pyrimidin-5-yl)-1-methyl-2-oxo-1,2-dihydropyridine-3-carboxylic acid]  100%
32. O=C(O)c1cc(-c2cnc(Nc3ccc(F)c(Cl)c3)nc2-n2ccc(C(F)(F)F)n2)ccn1 [Example 1068, 4-(2-(3-Chloro-4-fluorophenylamino)-4-(3-(trifluoromethyl)-1H-pyrazol-1-yl)pyrimidin-5-yl)picolinic acid]  100%
